The values below are quoted from earlier work in patent US11339174B2, “γ-spiroketal-γ-lactones and pharmaceutical composition containing same and process for preparation thereof” (Council of Scientific and Industrial Research, priority 2017, dated 2022).

In brackets after ≈: the same amount, converted by molar mass.

One data set concerns HL-60. The note with it: anticancer.

In the case of `C[C@H]1O[C@@H]2C[C@]3(C=CC(=O)O3)O[C@@H]2[C@H]1O` [pyrenolide D], in the data set with HL-60, the “IC50 against HL-60” value is 4 µg/mL (≈ 18.9 µM).
On to massarinoline A, for which the “activity against Bacillus subtilis” value in the data set on Bacillus subtilis was “active”. The “activity against Staphylococcus aureus” value with Staphylococcus aureus is reported as “active”.
